Assays:
human BCRP = target: T1, human BCRP (Homo sapiens, UniProt Q9UNQ0); test: Inhibition of tracer uptake in BCRP-expressing vesicles; format: in vitro ADME; details: ES 0.1 µM, 100 µM–12.5 mM fluciclovine
T1 construct: purchased GenoMembrane Co., Ltd. (Kanagawa, Japan); host or cells: Sf9
T1 sequence (Q9UNQ0 1-655): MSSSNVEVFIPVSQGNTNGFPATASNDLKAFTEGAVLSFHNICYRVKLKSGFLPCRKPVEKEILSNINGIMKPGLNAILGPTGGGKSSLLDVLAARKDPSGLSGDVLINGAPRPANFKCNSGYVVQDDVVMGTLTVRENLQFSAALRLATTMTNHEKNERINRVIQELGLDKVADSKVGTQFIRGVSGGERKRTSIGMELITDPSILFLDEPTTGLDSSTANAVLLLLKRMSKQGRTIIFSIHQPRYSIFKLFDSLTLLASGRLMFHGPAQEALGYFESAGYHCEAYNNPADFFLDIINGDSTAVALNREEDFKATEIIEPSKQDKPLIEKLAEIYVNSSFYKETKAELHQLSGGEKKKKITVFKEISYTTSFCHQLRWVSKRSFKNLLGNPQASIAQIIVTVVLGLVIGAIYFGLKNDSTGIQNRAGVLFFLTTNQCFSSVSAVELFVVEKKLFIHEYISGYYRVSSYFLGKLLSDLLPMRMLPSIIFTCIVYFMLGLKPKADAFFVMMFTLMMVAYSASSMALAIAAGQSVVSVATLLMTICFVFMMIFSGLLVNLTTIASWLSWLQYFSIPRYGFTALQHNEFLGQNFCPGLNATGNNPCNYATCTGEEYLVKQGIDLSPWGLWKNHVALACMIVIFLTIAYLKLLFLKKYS
Protocol: (§1) For ABC transporters, experimental kits containing Sf9-derived vesicles with high expression levels of human P-gp, MRP4, BCRP, and each ABC transporter (including buffer, ATP/AMP solution, and glutathione) were purchased from GenoMembrane Co., Ltd. (Kanagawa, Japan).
(§2) Vesicular transport assays were carried out according to the manufacturer’s protocol. […] The reaction was started by suspending 50 μg of vesicles (10 μL) in 40 μL of the reaction buffer. After incubation for an appropriate period of time, the reaction was stopped by the addition of ice-cold stop buffer (40 mM MOPS-Tris and 70 mM KCl; pH 7.0), after which the solution was filtered through a 0.45 μm HA filter (Millipore Corp., Billerica, MA, USA) using suction, and was washed twice in 5 mL of ice-cold stop buffer. The radioactivity of the filter was measured with a Tri-Carb 2910TR liquid scintillation counter (PerkinElmer) using Ultima Gold (PerkinElmer). The amount of tracer uptake was normalized to the membrane protein amount described in the product information sheets.

OAT1 = target: T2, OAT1 (Homo sapiens, UniProt Q4U2R8); test: Inhibition of tracer uptake in OAT1-expressing cells; format: in vitro ADME; details: OAT1, tracer [14C]PAH 1 µM
T2 construct: host or cells: Flp-in-293
T2 sequence (Q4U2R8 1-563): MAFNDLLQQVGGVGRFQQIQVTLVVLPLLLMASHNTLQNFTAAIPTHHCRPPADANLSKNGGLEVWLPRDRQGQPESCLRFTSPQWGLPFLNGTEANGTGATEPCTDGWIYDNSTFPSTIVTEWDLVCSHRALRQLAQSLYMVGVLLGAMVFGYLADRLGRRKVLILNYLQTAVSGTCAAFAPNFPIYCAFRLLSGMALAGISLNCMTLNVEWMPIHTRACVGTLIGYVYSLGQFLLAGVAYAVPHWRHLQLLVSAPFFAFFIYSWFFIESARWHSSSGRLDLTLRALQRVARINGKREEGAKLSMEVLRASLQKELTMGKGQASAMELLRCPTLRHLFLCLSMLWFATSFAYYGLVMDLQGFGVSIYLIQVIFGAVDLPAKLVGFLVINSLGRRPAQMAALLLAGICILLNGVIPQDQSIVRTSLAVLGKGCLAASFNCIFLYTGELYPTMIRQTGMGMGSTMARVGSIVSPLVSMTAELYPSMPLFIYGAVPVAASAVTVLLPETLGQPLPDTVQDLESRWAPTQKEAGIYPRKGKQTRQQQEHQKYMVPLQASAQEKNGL
Protocol: For the SLC transporter experiments, Mock Flp-in-293 cells (Flp/mock), OAT1-expressing Flp-in-293 cells (Flp/OAT1), mock HEK293 cells (HEK/mock), and OATP1B3-expressing HEK293 cells (HEK/OATP1B3) were obtained from Kanazawa University (Ishikawa, Japan). Briefly, Flp-in-293 and HEK293 cells were transfected with the appropriate plasmid DNA and selected using antibiotics (hygromycin or G-418). All cell lines were cultured in DMEM (Life Technologies Japan) supplemented with 10% (v/v) fetal bovine serum (American Type Culture Collection) and antibiotics (100 U/mL penicillin and 100 μg/mL streptomycin (Life Technologies Japan) for mock cells, 0.2 mg/mL hygromycin for Flp/OAT1 cells, and 1.2 mg/mL G-418 (Roche Diagnostics K.K., Tokyo, Japan) for HEK/OATP1B3 cells) at 37 °C under an atmosphere containing 5% CO2. […]
The experiments were performed as described previously, with minor modifications. […] The cells were lysed in 0.3 mL of 0.1N NaOH at room temperature, after which the radioactivity of each aliquot was measured as described above. The protein concentration of the cell lysate was determined with a VersaMax microplate reader (Molecular Devices Japan K.K., Osaka, Japan) or SpectraMax i3x (Molecular Devices Japan K.K.; only for OATP1B1) using a BCA Protein Assay Kit (Thermo Fisher Scientific, Kanagawa, Japan). Tracer uptake was expressed as pmol/mg protein. […]

human P-gp = target: T3, human P-gp (Homo sapiens, UniProt P08183); test: [14C]fluciclovine uptake by P-gp-expressing inside-out vesicles; format: in vitro ADME
T3 construct: purchased GenoMembrane Co., Ltd. (Kanagawa, Japan); host or cells: Sf9
T3 sequence (P08183 whole entry): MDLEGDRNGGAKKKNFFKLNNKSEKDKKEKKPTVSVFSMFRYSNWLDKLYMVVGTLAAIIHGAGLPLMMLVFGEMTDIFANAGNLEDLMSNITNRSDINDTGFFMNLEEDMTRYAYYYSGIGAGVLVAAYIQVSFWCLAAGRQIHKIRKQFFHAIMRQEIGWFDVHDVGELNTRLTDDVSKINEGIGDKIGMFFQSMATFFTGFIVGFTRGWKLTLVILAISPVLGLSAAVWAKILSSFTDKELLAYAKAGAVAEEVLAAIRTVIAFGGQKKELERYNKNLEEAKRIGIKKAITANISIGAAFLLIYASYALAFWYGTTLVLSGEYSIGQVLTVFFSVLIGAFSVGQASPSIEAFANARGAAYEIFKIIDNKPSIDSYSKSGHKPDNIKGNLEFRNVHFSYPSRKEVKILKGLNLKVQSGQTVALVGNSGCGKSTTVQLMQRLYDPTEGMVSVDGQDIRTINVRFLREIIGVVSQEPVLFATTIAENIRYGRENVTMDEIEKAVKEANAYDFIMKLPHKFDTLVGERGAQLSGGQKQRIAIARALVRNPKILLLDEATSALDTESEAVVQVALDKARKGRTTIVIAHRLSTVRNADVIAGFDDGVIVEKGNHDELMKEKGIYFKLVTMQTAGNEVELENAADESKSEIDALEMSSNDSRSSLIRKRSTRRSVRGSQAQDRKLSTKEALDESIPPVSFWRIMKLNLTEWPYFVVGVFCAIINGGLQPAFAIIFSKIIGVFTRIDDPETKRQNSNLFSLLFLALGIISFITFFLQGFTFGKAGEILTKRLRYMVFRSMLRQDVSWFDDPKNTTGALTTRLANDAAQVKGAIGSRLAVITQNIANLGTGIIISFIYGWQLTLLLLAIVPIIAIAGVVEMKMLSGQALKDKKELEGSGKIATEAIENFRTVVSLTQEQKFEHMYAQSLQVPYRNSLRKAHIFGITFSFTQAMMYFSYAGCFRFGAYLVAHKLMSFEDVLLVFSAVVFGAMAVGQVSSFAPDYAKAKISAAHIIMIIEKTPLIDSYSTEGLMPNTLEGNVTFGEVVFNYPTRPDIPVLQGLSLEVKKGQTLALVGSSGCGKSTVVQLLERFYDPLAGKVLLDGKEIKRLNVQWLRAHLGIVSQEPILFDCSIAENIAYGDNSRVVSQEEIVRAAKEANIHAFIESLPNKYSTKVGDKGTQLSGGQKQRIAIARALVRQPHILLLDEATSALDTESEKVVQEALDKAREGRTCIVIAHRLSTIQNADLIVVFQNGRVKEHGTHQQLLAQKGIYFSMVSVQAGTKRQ
Protocol: as §1, §2

LLC-PK1 monolayer model = test: Inhibition study of [14C]fluciclovine apical-to-basal transport, LLC-PK1 monolayer model
From the text: Natural and synthetic amino acids were used as inhibitors: MeAIB (2-(methylamino)-isobutyric acid, for system A in the presence of Na^+); Thr (L-threonine, for system ASC in the presence of Na^+); and BCH (2-aminobicyclo[2,2,1]heptane-2-carboxylic acid, for system L in the absence of Na^+).

inhibition of transport of BCRP-specific substrate [3H]estrone-3-sulfate (human BCRP) | IC50 (OAT1) [mM] | Compound | uptake compared with control vesicles (human P-gp) | apical-to-basal transport rate, % of the control in Na+ buffer (LLC-PK1 monolayer model; Na+-free buffer, 10 µM, 120 min) [%] | contribution of Na+-dependent transport to the total penetration amount (LLC-PK1 monolayer model; control in Na+-free buffer subtracted from control in Na+ buffer) [%]
does not inhibit | 3.98 ± 1.77 | N[C@]1(C(=O)O)C[C@@H](F)C1 [fluciclovine] |  |  | 
 |  | N[14C]1(C(=O)O)CC(F)C1 (stereo not drawn) [[^14C]fluciclovine, trans-1-amino-3-fluoro[1-^14C]cyclobutanecarboxylic acid] | no significant difference | 58.8 | 41.2

Source: article PMC5085761 (International Journal of Molecular Sciences, 2016)
